Tests used:
L 929 cells [1] = experiment: Cytotoxicity on cell cultures (Table 2)
Description: The biological and pharmacological activity of the compounds under examination was tested on cell cultures and under gamma radiations. Concentrations of 10^-6, 5×10^-6, 10^-5 and 10^-3 M of each compound were used. These aqueous solutions were added to cell cultures containing from 50 to 60 L 929 cells per mm^2; nutrient solution RPM-1-1640 containing 3% calf serum. Contact between the cells and the compound under examination was continued for six hours under nitrogen and under air. Parts of the solutions during the contact with the drug were irradiated in gamma cell with 1000, 2000 and 3000 rad always using a control sample without the drug.

L 929 cells [2] = experiment: Radiosensitization of cells in hypoxic condition under gamma radiation (Table 1); assay type: cell-based
Description: The biological and pharmacological activity of the compounds under examination was tested on cell cultures and under gamma radiations. […] These aqueous solutions were added to cell cultures containing from 50 to 60 L 929 cells per mm^2; nutrient solution RPM-1-1640 containing 3% calf serum. Contact between the cells and the compound under examination was continued for six hours under nitrogen and under air. Parts of the solutions during the contact with the drug were irradiated in gamma cell with 1000, 2000 and 3000 rad always using a control sample without the drug.

[3] = Reactivity with O2 radicals, pulsed electron beams (Table 3); settings: potassium formiate solution saturated with O2; 12 MeV pulsed electron beams
Description: (§1) For testing the reactivity with oxygen radicals, solutions of the compounds under examination in very pure water were submitted to irradiation by an electron flow in accordance with the following procedure:
The O2 species was generated by irradiation of a […] solution of potassium formiate satured with O2 with 12 MeV pulsed electron beams.
The concentration of the O2 radical produced is depending from the irradiation dose (which is proportional to the length of the pulse) and was in any case in excess with respect to the concentration of the reacting substance.

[4] = Reactivity with OH radicals, pulse irradiation (Table 3); settings: KCNS 10^-4 M; pulse 50 nsec, dose 18 Gy; λ=500 nm
Description: as §1
The irradiated solution for measurement of reactivity with OH radicals contained KCNS 10^-4 M and increasing concentrations of the compounds under examination. The concentrations were 10^-6 and 6×10^-6for the first five compounds of Table 1, 10^-5 and 10^-4, 10^-3 M for the other eight compounds.
The water used for the tests was neutral and made absolutely pure by deionization and four distillations also in the presence of oxidizing agents (KMnO4).
The irradiation conditions were: pulse 50 nsec, dose 18 Gy.
Absorption was performed at λ=500 nm.

male mice = experiment: Acute toxicity test by oral and intravenous route on male mice (Table 4); assay type: in vivo; settings: 14 days
Description: (§2) The acute toxicity test was carried out by oral and intravenous route on male mice, weighing 19-21 g, which were deprived of meal for 16 hrs before treatment. Oral administration was performed by a gastric probe at doses of 500, 750, 1000 and 2000 mg/kg respectively, of the compounds under examination in aqueous solution of Tween (R). The intravenous administrations was performed in the caudal vein at doses of 100 and 200 mg/kg in 0.9% sodium chloride solution. The administered volumes were 1 ml/20 g by oral route and 0.5 ml/20 g by intravenous route.
(§3) After administration the mice were kept under control for 14 days.

[5] = as above; assay type: in vivo; settings: mouse, in vivo, male mice
Description: as §2, §3

[6] = culture time 0 hr, 0.5 × 10^-5 M, control 40
[7] = culture time 6 hr, 0.5 × 10^-5 M, control 62
[8] = culture time 12 hr, 0.5 × 10^-5 M, control 80
[9] = culture time 24 hr, 0.5 × 10^-5 M, control 166
[10] = culture time 0 hr, 5 × 10^-5 M, control 40
[11] = culture time 6 hr, 5 × 10^-5 M, control 62
[12] = culture time 12 hr, 5 × 10^-5 M, control 80
[13] = culture time 24 hr, 5 × 10^-5 M, control 166

Row | Structure (SMILES) | Cytotoxicity Index (number of cells) (L 929 cells [1]; [6]) | Cytotoxicity Index (number of cells) (L 929 cells [1]; [7]) | Cytotoxicity Index (number of cells) (L 929 cells [1]; [8]) | Cytotoxicity Index (number of cells) (L 929 cells [1]; [9]) | Cytotoxicity Index (number of cells) (L 929 cells [1]; [10]) | Cytotoxicity Index (number of cells) (L 929 cells [1]; [11]) | Cytotoxicity Index (number of cells) (L 929 cells [1]; [12]) | Cytotoxicity Index (number of cells) (L 929 cells [1]; [13]) | Radiosensitization Index (R.S.I.) (L 929 cells [2]; concentration 1 × 10^-4 M) | Reactivity with O2 radicals measured as a speed constant (KO2-·) [3] | Reactivity with OH radicals measured as a speed constant (KOH·) [4] | further results
1 | CS(=O)(=O)c1cc([N+](=O)[O-])c(I)s1 [Compound 3] | 37 number of cells | 30 number of cells | 35 number of cells | 50 number of cells | – | – | – | – | – | – | – | –
2 | O=C(O)CCCNC(=O)c1ccc([N+](=O)[O-])s1 [Compound 8] | – | – | – | – | 47 number of cells | 50 number of cells | 80 number of cells | 152 number of cells | 1.30 | – | – | –
3 | O=C(O)c1ccc([N+](=O)[O-])s1 [Compound 6] | – | – | – | – | 50 number of cells | 60 number of cells | 70 number of cells | 110 number of cells | 1.82 | 100000 M⁻¹ s⁻¹ | 7.5e+09 M⁻¹ s⁻¹ | –
4 | CN1CCN(C(=O)c2ccc([N+](=O)[O-])s2)CC1 [Compound 10, 5-nitro-2-carboxythiophene-N-methyl-piperazinamide] | – | – | – | – | 50 number of cells | 52 number of cells | 60 number of cells | 86 number of cells | 1.58 | 33000 M⁻¹ s⁻¹ | 1e+10 M⁻¹ s⁻¹ | –
5 | NC(=O)c1ccc([N+](=O)[O-])s1 [Compound 5] | – | – | – | – | 40 number of cells | 32 number of cells | 50 number of cells | 80 number of cells | – | 30000 M⁻¹ s⁻¹ | 2.3e+10 M⁻¹ s⁻¹ | Radiosensitization Index (R.S.I.) (L 929 cells [2]; concentration 5 × 10^-5 M): 1.40
6 | O=C(c1ccc([N+](=O)[O-])s1)N1CCOCC1 [Compound 9, 5-nitro-2-carboxythiophene-morpholinamide] | – | – | – | – | 64 number of cells | 60 number of cells | 80 number of cells | 138 number of cells | 1.56 | 230000 M⁻¹ s⁻¹ | 3.1e+10 M⁻¹ s⁻¹ | Death (dead/treated animals) (male mice; intravenous, 100 mg/kg): 0/5; Death (dead/treated animals) (male mice; intravenous, 200 mg/kg): 0/5; Death (dead/treated animals) (male mice; oral, 500 mg/kg): 0/5; Death (dead/treated animals) (male mice; oral, 750 mg/kg): 0/5; Death (dead/treated animals) (male mice; oral, 1000 mg/kg): 1/5; Death (dead/treated animals) (male mice; oral, 2000 mg/kg): 3/5; LD50 at 336 h ([5]; oral): 2000 mg/kg
7 | COCC(O)Cn1ccnc1[N+](=O)[O-] (centres unmarked) [Misonidazole, reference compound] | – | – | – | – | – | – | – | – | – | – | – | Radiosensitization Index (R.S.I.) (L 929 cells [2]; concentration 1 × 10^-3 M): 1.65
8 | CC(=O)Nc1ccc([N+](=O)[O-])s1 [Compound 11, 5-nitro-2-(N-acetyl)-thienylamine] | – | – | – | – | 44 number of cells | 52 number of cells | 60 number of cells | 90 number of cells | 1.65 | – | – | –
9 | O=[N+]([O-])c1csc([N+](=O)[O-])c1 [Compound 2] | 46 number of cells | 40 number of cells | 68 number of cells | 80 number of cells | – | – | – | – | – | – | – | –
10 | ON=Cc1ccc(Br)s1 [Compound 13, 5-bromo-2-thiophenaldoxime] | – | – | – | – | 43 number of cells | 50 number of cells | 70 number of cells | 130 number of cells | 1.65 | 23000 M⁻¹ s⁻¹ | 8e+09 M⁻¹ s⁻¹ | Death (dead/treated animals) (male mice; intravenous, 100 mg/kg): 0/5; Death (dead/treated animals) (male mice; intravenous, 200 mg/kg): 0/5; Death (dead/treated animals) (male mice; oral, 500 mg/kg): 0/5; Death (dead/treated animals) (male mice; oral, 750 mg/kg): 0/5; Death (dead/treated animals) (male mice; oral, 1000 mg/kg): 2/5; Death (dead/treated animals) (male mice; oral, 2000 mg/kg): 3/5; LD50 at 336 h ([5]; oral): 1800 mg/kg
11 | O=[N+]([O-])c1cc([N+](=O)[O-])c(I)s1 [Compound 1] | 36 number of cells | 35 number of cells | 42 number of cells | 71 number of cells | – | – | – | – | – | 3.5e+06 M⁻¹ s⁻¹ | 2.1e+10 M⁻¹ s⁻¹ | Death (dead/treated animals) (male mice; intravenous, 100 mg/kg): 0/5; Death (dead/treated animals) (male mice; intravenous, 200 mg/kg): 0/5; Death (dead/treated animals) (male mice; oral, 500 mg/kg): 0/5; Death (dead/treated animals) (male mice; oral, 750 mg/kg): 2/5; Death (dead/treated animals) (male mice; oral, 1000 mg/kg): 5/5; LD50 at 336 h ([5]; intravenous): 200 mg/kg; LD50 at 336 h ([5]; oral): 760 mg/kg
12 | O=C(O)CCNC(=O)c1ccc([N+](=O)[O-])s1 [Compound 7] | – | – | – | – | 56 number of cells | 70 number of cells | 75 number of cells | 164 number of cells | 1.38 | – | – | –
13 | O=[N+]([O-])c1ccc(Oc2sccc2[N+](=O)[O-])cc1 [Compound 4] | 56 number of cells | 34 number of cells | 48 number of cells | 70 number of cells | – | – | – | – | – | 20000 M⁻¹ s⁻¹ | 1.3e+10 M⁻¹ s⁻¹ | –
